Assay results published in patent US9536718B2, “Detection of membrane protein-therapeutic agent complexes by mass spectrometry” (Oxford University Innovation Limited, priority 2011, dated 2017).

Key:
[1] = test system: P-gp; assay: native mass spectrometry of P-gp with CsA, nucleotides and lipid (Example 2); assay type: binding; conditions: for number of nucleotides bound to P-gp: 1 mM MgCl2 plus 50 μM ATP or ATPγS, FIG. 2c
Description: His-tagged P-glycoprotein was expressed in P.pastoris and purified according to a protocol described previously (see Aller et al, supra). Lipids were purchased from Avanti Polar Lipids.
Before analysis, P-gp was buffer exchanged into 200 mM ammonium acetate pH 7 supplemented with 0.02% n-dodecyl-β-D-maltoside (DDM), using micro BioSpin-6 devices (Bio-Rad). Lipids were first prepared at 2 mM in chloroform and then diluted to 20 μM in 200 mM ammonium acetate pH 7 supplemented with 0.02% DDM. Cyclosporin was first dissolved at 8 mM in methanol and then diluted to 5-100 μM in 200 mM ammonium acetate pH 7 supplemented with 0.02% DDM. MS spectra were acquired on a Q-TOF2 (Micromass) modified for the transmission and detection of high mass complexes. Samples were introduced in the ion-source via gold-coated nanoflow capillaries. […] Micelle transmission was enhanced by increasing the Pirani pressure to 30 mbar. […] Spectra were analysed with Massign software.

[2] = test system: mouse P-gp; assay: nanoelectrospray MS / IM-MS of P-gp pre-incubated with drug compounds (Example 1); assay type: binding; conditions: 2-3 mg/ml P-gp pre-incubated with 1-10 molar equivalents of test compound; FIG. 1
Description: P-glycoprotein (P-gp) was expressed and purified as reported previously (Aller et al, Science, 2009, 323, 1718-1722). In this method, P-gp was expressed in P. pastoris strain and purified as a his-tagged protein from the membranes solubilised with Triton X-100. Buffer was exchanged by washing with buffer containing 20 mM imidazole, 0.04% sodium cholate and 0.0675% β-DDM. The protein was concentrated, subjected to gel filtration chromatography and assayed for purity by SDS-PAGE.
An aliquot (30 μl) of mouse P-gp solution (9 mg/ml) in 0.07% β-DDM, 0.04% sodium cholate, 100 mM NaCl, 0.2 mM TCEP, 20 mM Hepes, pH 7.5 was buffer-exchanged using a membrane filter and diluted 3-fold in 300 mM ammonium acetate, pH 7.5. Spectra of P-gp with drug compounds were obtained by first pre-incubating 2-3 mg/ml P-gp protein with 1-10 molar equivalents of the test compound for 15 minutes to overnight prior to nanoelectrospray ionisation mass spectrometry.
Mass spectrometry measurements were carried out on a Synapt HDMS (Waters, Manchester, UK) quadrupole-S2 ion-trap-IM-MS instrument modified for transmission and detection of ions at high m/z ratios. Aliquots of complex-containing solutions (2 μL) in detergent were introduced via gold-coated nanoflow electrospray capillaries. […]

cardiolipin 14:1(3)-15:1
number of molecules bound to P-gp already bound to one ATP or ATPγS ([1]; first incubated with ATP or ATPγS, then with cardiolipin or CsA, FIG. 3a, b): one or two

Nc1ncnc2c1ncn2[C@@H]1O[C@H](COP(=O)(O)OP(=O)(O)OP(=O)(O)O)[C@@H](O)[C@H]1O [ATP, adenosine triphosphate]
number of nucleotides bound to P-gp [1]: one or two

CC(C)[C@H]1NC(=O)c2c[se]c(n2)[C@@H](C(C)C)NC(=O)c2c[se]c(n2)[C@@H](C(C)C)NC(=O)c2c[se]c1n2 [QZ59Se, RRR]
effect of drug binding on the mass spectrum of P-gp [2]: altered the mass spectrum of the membrane protein

Nc1ncnc2c1ncn2[C@@H]1O[C@H](COP(=O)(O)OP(=O)(O)OP(O)(O)=S)[C@@H](O)[C@H]1O [ATPγS]
number of nucleotides bound to P-gp [1]: one or two
